{"source": "patent US20250382269A1", "about": "(CFD Research Corporation, priority 2019, published 2025)", "key": {"HepaRG cells": {"test_system": "HepaRG cells", "experiment": "Cytotoxicity MTT assay in HepaRG cells", "type": "cell-based, human", "conditions": "48 h", "procedure": "(§1) Additionally, the antimicrobial compounds were analyzed for cytotoxicity. […] We utilized the standard MTT assay (Promega CellTiter 96) and GraphPad Prism 7 software to determine EC50 values for each analogue. Briefly, 20,000 HepG2 cells in 200 μl of the ATCC recommended media were seeded in each well of a 96-well plate with a moisture barrier created in the outermost wells. The cells were allowed to attach overnight at 37° C., and then observed under phase contrast microscopy for proper morphological characteristics. If cells appeared healthy and attached, test compounds were added in 7 concentrations from […] (n=3) from freshly prepared DMSO stock plates. […] Once incubations were complete, the spectrophotometric absorbance of the samples was measured at a wavelength of 595 nm. […] For the HepaRG assay, NoSpin HepaRG™ cells (Lonza, cat #NSHPRG) were thawed and plated with 20,000 cells per well. They were allowed to attach for 4 h (optimal DME profile per Lonza's testing) before dosing following the identical protocol as above."}, "[1]": {"experiment": "MIC with and without 2-ketobutyrate (synergy)", "type": "cell-based"}, "[2]": {"test_system": "branched chain amino acid synthesis pathway (ILVB)", "experiment": "RNA sequencing / transcriptomic and metabolic mechanism of action studies"}, "[3]": {"test_system": "B. subtilis / cytotoxicity EC50", "experiment": "Selectivity index (SI) using B. subtilis MICs", "procedure": "as §1"}, "Candida glabrata": {"test_system": "Candida glabrata", "experiment": "MIC/MFC against Candida glabrata strains", "type": "cell-based", "conditions": "Nakaseomyces glabratus; #584"}, "[4]": {"test_system": "S. aureus cell wall synthesis", "experiment": "Macromolecular synthesis assay (glucosamine incorporation into cell wall)", "type": "cell-based", "conditions": "dose-response, FIG. 2A-2B"}}, "data": [{"smiles": "Oc1ccc(Sc2c[nH]c3ccccc23)cc1", "note": "[Compound 156I, 4-((1H-indol-3-yl)thio)phenol]", "values": [{"measurement": "Cytotoxicity HepaRG EC50", "setting": "HepaRG cells", "result": ">20", "unit": "µg/mL"}]}, {"smiles": "Nc1ccccc1Sc1c[nH]c2ccc(Br)cc12", "note": "[Compound 174M, 2-((5-bromo-1H-indol-3-yl)thio)aniline]", "values": [{"measurement": "Cytotoxicity HepaRG EC50", "setting": "HepaRG cells", "result": 85, "unit": "µg/mL"}, {"measurement": "MIC with 200 μg/mL 2-ketobutyrate", "setting": "[1]; with 200 μg/mL 2-ketobutyrate", "result": 0.781}, {"measurement": "MIC with 800 μg/mL 2-ketobutyrate", "setting": "[1]; with 800 μg/mL 2-ketobutyrate", "result": "less than 0.39"}, {"measurement": "mechanism of action from transcriptomic and metabolic studies", "setting": "[2]", "result": "branched chain amino acid biosynthesis inhibition"}]}, {"smiles": "Nc1ccccc1Sc1c[nH]c2ccc(C(F)(F)F)cc12", "note": "[Compound 177C, 2-((5-(trifluoromethyl)-1H-indol-3-yl)thio)aniline]", "values": [{"measurement": "SI (selectivity index)", "setting": "[3]", "result": 123.6}]}, {"smiles": "Clc1ccc(Sc2c[nH]c3ccc(Br)cc23)c(Cl)c1", "note": "[Compound 174V, 5-bromo-3-((2,4-dichlorophenyl)thio)-1H-indole]", "values": [{"measurement": "SI (selectivity index)", "setting": "[3]", "result": 19.8}]}, {"smiles": "Clc1c(Cl)c(Cl)c(Sc2c[nH]c3ccc(Br)cc23)c(Cl)c1Cl", "note": "[Compound 174AD, 5-bromo-3-((perchlorophenyl)thio)-1H-indole]", "values": [{"measurement": "MIC", "setting": "Candida glabrata", "result": "> 50", "unit": "µg/mL"}]}, {"smiles": "Clc1ccc2[nH]cc(Sc3ccc(Br)cc3)c2c1", "note": "[Compound 174C, 3-((4-bromophenyl)thio)-5-chloro-1H-indole]", "values": [{"measurement": "SI (selectivity index)", "setting": "[3]", "result": 16.3}]}, {"smiles": "COc1ccc2[nH]cc(Sc3ccc(Br)cc3)c2c1", "note": "[Compound 172E, 3-((4-bromophenyl)thio)-5-methoxy-1H-indole]", "values": [{"measurement": "SI (selectivity index)", "setting": "[3]", "result": 14.9}]}, {"smiles": "Brc1ccc(Sc2c[nH]c3ccccc23)cc1", "note": "[Compound 156K, 3-((4-bromophenyl)thio)-1H-indole]", "values": [{"measurement": "Cytotoxicity HepaRG EC50", "setting": "HepaRG cells", "result": 32, "unit": "µg/mL"}]}, {"smiles": "Fc1ccc2[nH]cc(Sc3ccccc3Br)c2c1", "note": "[Compound 177E, 3-((2-bromophenyl)thio)-5-fluoro-1H-indole]", "values": [{"measurement": "SI (selectivity index)", "setting": "[3]", "result": 20.3}]}, {"smiles": "CN[C@H](CC(C)C)C(=O)N[C@H]1C(=O)N[C@@H](CC(N)=O)C(=O)N[C@H]2C(=O)N[C@H]3C(=O)N[C@H](C(=O)N[C@H](C(=O)O)c4cc(O)cc(O)c4-c4cc3ccc4O)[C@H](O)c3ccc(c(Cl)c3)Oc3cc2cc(c3O[C@@H]2O[C@H](CO)[C@@H](O)[C@H](O)[C@H]2O[C@H]2C[C@](C)(N)[C@H](O)[C@H](C)O2)Oc2ccc(cc2Cl)[C@H]1O", "note": "[vancomycin, reference compound]", "values": [{"measurement": "cell wall synthesis inhibition (glucosamine incorporation)", "setting": "[4]", "result": "increasingly inhibits glucosamine from incorporating into a cell wall"}]}, {"smiles": "Brc1ccc2[nH]cc(Sc3ccccc3Br)c2c1", "note": "[Compound 174I, 5-bromo-3-((2-bromophenyl)thio)-1H-indole]", "values": [{"measurement": "cell wall synthesis inhibition (glucosamine incorporation)", "setting": "[4]", "result": "substantial cell wall synthesis inhibition"}, {"measurement": "mechanism of action from transcriptomic and metabolic studies", "setting": "[2]", "result": "branched chain amino acid biosynthesis inhibition"}]}]}
